Results taken from PubChem BioAssay (NCI).
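1) Cells in 96-well plates. 2) Compound, 48 h, 5 concentrations. 3) Linear interpolation between surrounding doses. 4) Unreached endpoint = highest concentration. The concentration for 50% growth inhibition is given as GI50. TGI: concentration producing complete growth inhibition.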

What was measured:
Test in all cases: NCI anticancer screen, dose series, 48 h
[1] = system: SF-539 CNS
[2] = system: OVCAR-5 ovarian
[3] = system: A498 renal
[4] = system: 786-0 renal
[5] = system: SK-MEL-2 melanoma
[6] = system: SNB-75 CNS
[7] = system: OVCAR-3 ovarian
[8] = system: HCT-116 colon
[9] = system: NCI-H23 lung
[10] = system: MDA-MB-435

| Structure (SMILES) | GI50 [1] | TGI [1] | GI50 [2] | TGI [2] | GI50 [3] | TGI [3] | GI50 [4] | TGI [4] | GI50 [5] | TGI [5] | GI50 [6] | TGI [6] | GI50 [7] | TGI [7] | GI50 [8] | TGI [8] | GI50 [9] | TGI [9] | GI50 [10] | TGI [10] |
| --- | --- | --- | --- | --- | --- | --- | --- | --- | --- | --- | --- | --- | --- | --- | --- | --- | --- | --- | --- | --- |
| CCOC(=O)c1sc(NC(=O)COc2cccc(/C=C3\CCc4cc(OC)ccc4C3=O)c2)nc1C | 2.1 µM | 7.58 µM | 13.5 µM | > 100 µM | 16.3 µM | 76.6 µM | 17 µM | > 100 µM | 5.38 µM | > 100 µM | 2.51 µM | > 100 µM | 3.19 µM | 6.71 µM | 3.18 µM | > 100 µM | 15.8 µM | > 100 µM | 2.25 µM | > 100 µM |
| O=C(Nc1ccc(Cl)cc1)Nc1nccs1 | 1.81 µM | 6.42 µM | 12.8 µM | > 100 µM | 0.518 µM | 16.9 µM | 11.1 µM | > 100 µM | 0.784 µM | 43.3 µM | 2.02 µM | > 100 µM | 1.95 µM | 7.85 µM | 0.49 µM | 52.8 µM | 11.5 µM | > 100 µM | 0.207 µM | 0.585 µM |
| Oc1ccc(N=Nc2nccs2)c(O)c1 | 6.66 µM | 28.9 µM | 7.84 µM | 29.4 µM | 18.8 µM | 40.5 µM | 3.61 µM | 27.7 µM | 17.1 µM | 60.3 µM | 14.2 µM | > 100 µM | 2.4 µM | 7.37 µM | 2.92 µM | 8.95 µM | 5.36 µM | 28.7 µM | 4.77 µM | 31 µM |
| NCCCOc1cc(Cl)ccc1NC(=O)c1cc2ccccc2cc1OCCCN | 1.5 µM | 2.95 µM | 1.42 µM | 3.01 µM | 1.58 µM | 3.08 µM | 1.62 µM | 3.08 µM | 1.58 µM | 3.19 µM | 1.23 µM | 2.5 µM | 1.32 µM | 2.65 µM | 1.37 µM | 2.8 µM | 1.51 µM | 3.03 µM | 1.8 µM | 3.59 µM |
| CC(Cl)CN1c2ccccc2Sc2ccc(Cl)cc21 (stereo not given) |  | > 10 µM |  | > 10 µM |  | > 10 µM |  | > 10 µM |  | > 10 µM |  | > 10 µM |  | > 10 µM |  | > 10 µM |  | > 10 µM |  | > 10 µM |
| COc1cc(OC)c2sc(-c3ccc(-n4cncc4-c4cc(OC)c(OC)c(OC)c4)cc3)nc2c1 | 8.59 µM | > 100 µM | > 100 µM | > 100 µM | 1.83 µM | > 100 µM | 7.38 µM | > 100 µM | 6.09 µM | > 100 µM | 6.47 µM | > 100 µM | 3.26 µM | > 100 µM | 3.92 µM | > 100 µM | 6.15 µM | > 100 µM | 3.41 µM | > 100 µM |
| Cn1cc(-c2csc(-c3cn(C)c4ccc(F)cc34)n2)c2cnccc21 | 1.85 µM | 3.35 µM | 1.68 µM | 3.15 µM | 1.62 µM | 3.04 µM | 1.51 µM | 2.96 µM | 1.79 µM | 3.38 µM | 1.4 µM | 2.74 µM | 1.95 µM | 3.48 µM | 1.66 µM | 3.06 µM | 1.94 µM | 3.58 µM | 1.67 µM | 3.1 µM |
| Clc1nc(Cl)c2ncn(Cc3ccccc3Cn3cnc4c(Cl)nc(Cl)nc43)c2n1 | 0.16 µM | 0.719 µM | 5.09 µM | 10.4 µM | 11.2 µM | 27.7 µM | 4.47 µM | 9.57 µM | 8.96 µM | 27.8 µM | 3.9 µM | 16.4 µM | 1.47 µM | 2.85 µM | 2.06 µM | 5.98 µM | 5.26 µM | 10.7 µM | 2.31 µM | 5.58 µM |
